How the values were obtained:
[1] = test system: Mus musculus; assay: Psychomotor side-effect in mice by rotarod test by intraperitoneal administration at 60 mins; assay type: functional; settings: ip, 1 h
[2] = test system: Mus musculus; assay: Anticonvulsant activity in mice by intraperitoneal administration measured at 30 mins before maximum electroshock seizure induction; assay type: functional; settings: ip
[3] = target: T1, Sodium channel alpha subunits; brain (Types I, II, III) (Rattus norvegicus, UniProt P04775+P04774+P08104); assay: Binding of [3H]saxitoxin (STX) to rat brain sodium channel
[4] = test system: Mus musculus; assay: Anticonvulsant activity in mice by peroral administration measured at 60 mins before maximum electroshock seizure induction; assay type: functional; settings: po
[5] = Therapeutic index TI (ED50 rotorod/MES) of the compound; settings: mouse; read-out: TI
[6] = target: T1, Sodium channel alpha subunits; brain (Types I, II, III); assay: Binding of [3H]batrachotoxin (BTX) to rat brain sodium channel
[7] = Significant mortality was observed in mice caused by the compound; assay type: ADME; settings: mouse, in vivo

| Structure (SMILES) | ED50 [1] | ED50 [2] | IC50 [3] | ED50 [4] | selectivity ratio [5] | IC50 [6] | LD50 [7] |
| --- | --- | --- | --- | --- | --- | --- | --- |
| C[C@H](C(N)=O)N1CCC23CCCCC2[C@@H]1Cc1ccc(OCc2cccc(F)c2)cc13 (stereo partly specified) | 176 mg/kg | 18.1 mg/kg | > 300 µM | 50.8 mg/kg | 10 | 2.6 µM |  |
| CNC(=O)[C@@H](C)N1CCC23CCCCC2[C@@H]1Cc1ccc(OCc2cccc(F)c2)cc13 (stereo partly specified) | 152 mg/kg | 41.6 mg/kg | > 300 µM |  | 4 | 5.3 µM |  |
| CS(=O)(=O)O.C[C@H](NCc1ccc(OCc2cccc(F)c2)cc1)C(N)=O [SAFINAMIDE MESYLATE] | 626 mg/kg | 6.9 mg/kg | > 300 µM | 8 mg/kg | 78 |  |  |
| COc1ccc2c(c1)C13CCCCC1C(C2)N(C)CC3 (stereo not drawn) [RACEMETHORPHAN] |  | 10.1 mg/kg | > 300 µM | 12.9 mg/kg |  | 1.3 µM | 234 mg/kg |

Source: ChEMBL document CHEMBL1132661, “Synthesis and preliminary biological evaluation of new alpha-amino amide anticonvulsants incorporating a dextromethorphan moiety” (Bioorg Med Chem Lett, 1999)
